Measured values: patent publication EP0254534A2, “Erythromycin derivatives and compositions and use for inhibiting virus replication and disease” (Robinson, William S., priority 1986, dated 1988)
“And” between values parts separate entries of the source, which are not always exact repeats. Identical values can stand only once. Like-named read-outs stand apart in the source and are kept apart here.

Key:
[1] = tested on: HTLV III; assay: Inhibition of growth of HTLV III in infected T-cell line (VB) in tissue culture; culture medium assayed by reverse transcriptase and P-24 ELISA; type: cell-based; settings: HTLV III infected VB T-cells; for inhibition at 1 µg/mL: EMO 1 µg/ml; for inhibition at 5 µg/mL: EMO 5 µg/ml; for inhibition at 10 µg/mL: EMO 10 µg/ml; for inhibition at 20 µg/mL: EMO 20 µg/ml
Procedure: A sample of 9-0-methyloximinyl erythromycin A (EMO) was tested for capacity to inhibit growth of HTLV III in tissue culture. A T-cell line (VB) was infected with HTLV III and infected cells were incubated with 0, 1, 5, 10 and 20 µgm EMO per ml of tissue culture medium. Culture medium was recovered after 0, 1, 2, 3, and 4 days of incubation and assayed for HTLV III production by reverse transcriptase and viral antigen (P-24) testing by ELISA.

[2] = tested on: DHBV; assay: In vivo replication of DHBV in chronically infected Pekin ducks; serum viral DNA by slot blot hybridization
Procedure: A sample of 9-0-methyloximinyl erythromycin A (EMO) in solution at a concentration of 100 mg/ml in dimethyl sulfoxide (DMSO) was administered subcutaneously at a dose of 15 mg/kg/day for 14 days to a group of 10-week old Pekin ducks chronically infected with DHBV (experimentally infected as described by Marion et al., "Liver Disease Associated with Duck Hepatitis B Virus Infection of Domestic Ducks", Proc. Natl. Acad. Sci. USA (1984) 81:898). Another group of 10-week old Pekin ducks were used as a control and treated with the same dose of DMSO alone. In vivo replication of virus was assessed by measuring levels of DHBV virus in the serum of infected animals before, during, and after treatment. Virus levels in serum were determined by quantitating the DNA of the virus by slot blot hybridization. Ten µl of each serum was made up to 0.1 M with NaOH to disrupt virus and denature the viral DNA. The samples were spotted on nylon membrane which binds single stranded DNA. The filter-bound viral DNA was detected by hybridization with a DHBV [³²P]- DNA probe followed by autoradiography. The quantity of viral DNA in each serum sample, expressed as picograms of viral DNA/ml serum, was determined by comparing densitometer tracings of the exposed area of film overlying each serum spot on the nylon membrane with a standard curve derived from densitometer tracings for known amounts of DHBV DNA similarly spotted on the same nylon membrane.
EMO was administered beginning on day 8 for 14 days at the rate of 15 mg/kg/day. The low level was retained until day 22 (when EMO treatment was discontinued) thereafter the viral level began to climb and was followed to day 32, where the level reached about 650 picograms DHPV DNA/ml serum.
Table 2 summarizes the results of treatment of four animals with erythromycin A 9-0-methyloxime (EMO) in DMSO and four animals with DMSO alone as determined on day 22 after termination of administration of the drug after 14 days. Virus was similarly found to be suppressed by EMO treatment in each animal and not by DMSO.

[3] = culture medium, read-out: % Reduction Reverse Transcriptase
[4] = viral antigen by ELISA, read-out: % Reduction P-24

CCC1OC(=O)C(C)C(OC2CC(C)(OC)C(O)C(C)O2)C(C)C(OC2OC(C)CC(N(C)C)C2O)C(C)(O)CC(C)C(=NOC)C(C)C(O)C1(C)O (centres unmarked) [EMO, 9-0-methyloximinyl erythromycin A]
inhibition at 1 µg/mL [1, 3]: 10% | inhibition at 1 µg/mL [1, 4]: 8% | inhibition at 5 µg/mL [1, 3]: 50% | inhibition at 5 µg/mL [1, 4]: 45% | inhibition at 10 µg/mL [1, 3]: 73% | inhibition at 10 µg/mL [1, 4]: 69% | inhibition at 20 µg/mL [1, 3]: 82% | inhibition at 20 µg/mL [1, 4]: 86% | % Reduction in DHBV DNA In Serum After 14 Days Treatment ([2]; 15 mg/kgm/day in DMSO, subcutaneous, 14 days, individual ducks (Animal No. 1-4), determined on day 22): 100% (2×) and 96% and 94% | picograms of DHPV DNA/ml serum ([2]; by day 12 (EMO 15 mg/kg/day from day 8 for 14 days; 900 at day 0, maximum 1500 by day 8), low level retained until day 22): below the level of detection | picograms of DHPV DNA/ml serum ([2]; day 32, 10 days after EMO treatment was discontinued (day 22)): about 650 picograms DHPV DNA/ml serum
